Assay results: patent US11739120B2, “Water soluble salts of lipidated peptides and methods for preparing and using the same” (Bridge Biotherapeutics, Inc., priority 2018, dated 2023)
Residues, ends and D or L forms follow the SMILES beside them. *: point of attachment. Palmitoyl = CCCCCCCCCCCCCCCC(=O)*

Experiments:
Type in all cases: physicochemical
[1] = Approximate solubility of Compound I-1 (amorphous) in different solvents (manual dilution, visual observation); conditions: ambient laboratory temperature
Description: In this Example, approximate solubility tests of Compound I-1 (amorphous) were conducted in the different solvents at ambient laboratory temperature. The solubility was also tested by manual dilution combined with visual observation. In particular, a known amount of Compound I-1 was weighed and added to a vial. A known amount of solvent was gradually added to the vial with constant stirring. The solvent addition was kept at a very slow rate to minimize any excess solvent beyond what is needed to fully dissolve the solids. In order to cross-check the solubility, a small amount of Compound I-1 was added to the vial to confirm that the solution became turbid.

[2] = Stabilities of amorphous Compound I-1 (ICH guideline, XRPD)
Description: Stabilities of amorphous Compound I-1 were also conducted according to ICH guideline.

[3] = Storage stability of formulations of amorphous Compound I-1; conditions: powder from capsules; 6 month at 25° C./60% RH or 40° C./75% RH
Description: This enteric coated capsule formulation was tested for stability and dissolution. […] Thus, this formulation can be storage stable.
This capsule formulation was also tested for stability and dissolution. […] Thus, Formulation B is also storage stable.
This capsule formulation was also tested for stability and dissolution.
This tablet formulation was also tested for stability and dissolution.

[4] = Solubility of amorphous, Form A and Form E of Compound I-1 in water (shaken at 25° C., HPLC); conditions: for Final pH: mother liquor
Description: The solubility of amorphous, Form A or E of Compound I-1 in water was further studied. Specifically, about 250 mg Compound I-1 in amorphous, Forms A and E were each suspended in a 2 mL HPLC vial with 0.9 mL of water. Each suspension was then shaken at 25° C. under 1000 rpm. The suspensions were analyzed at 1 h and 24 h. In particular, at either the 1 h or 24 h time point, the slurries were centrifuged and analyzed by HPLC. The pH values of the mother liquors were measured, and the residues were characterized by XRPD.

SMILES: CCCCCCCCCCCCCCCC(=O)N1CCC[C@H]1C(=O)N1CCC[C@H]1C(=O)NCC(=O)N[C@@H](Cc1ccc(O)cc1)C(=O)[O-].[Na+] [Compound I-1 (Amorphous), sodium palmitoyl-L-prolyl-L-prolylglycyl-L-tyrosinate] (Palmitoyl-PPGY-OH)
- solubility ([1]; 1,4-Dioxane): 33.3 to 50 mg/mL
- solubility ([1]; 1-butanol): 50 to 100 mg/mL
- solubility ([1]; 2-Methyl Tetrahydrofuran): > 100 mg/mL
- solubility ([1]; Acetone): < 1 mg/mL
- solubility ([1]; Acetone:H2O (1:2)): 50 to 100 mg/mL
- solubility ([1]; Acetonitrile): < 1 mg/mL
- solubility ([1]; Acetonitrile:H2O (1:1)): 50 to 100 mg/mL
- solubility ([1]; Cyclohexane): < 1 mg/mL
- solubility ([1]; DMF): 20 to 33.3 mg/mL
- solubility ([1]; DMSO): 50 to 100 mg/mL
- solubility ([1]; Ethanol): 50 to 100 mg/mL
- solubility ([1]; Ethanol:H2O (1:1)): 50 to 100 mg/mL
- solubility ([1]; Ethanol:H2O (3:1)): 50 to 100 mg/mL
- solubility ([1]; Ethyl acetate): < 1 mg/mL
- solubility ([1]; Heptane): < 1 mg/mL
- solubility ([1]; Isopropyl acetate): < 1 mg/mL
- solubility ([1]; Isopropyl alcohol): 50 to 100 mg/mL
- solubility ([1]; Methanol): > 100 mg/mL
- solubility ([1]; Methanol:H2O (1:1)): > 100 mg/mL
- solubility ([1]; Methanol:H2O (3:1)): > 100 mg/mL
- solubility ([1]; Methyl ethyl ketone): 3.3 to 5 mg/mL
- solubility ([1]; Methyl isobutyl ketone): 1.2 to 1.4 mg/mL
- solubility ([1]; Methyl t-butyl ether): < 1 mg/mL
- solubility ([1]; N-methyl pyrrolidone): 50 to 100 mg/mL
- solubility ([1]; Tetrahydrofuran): > 100 mg/mL
- solubility ([1]; Tetrahydrofuran:H2O (1:1)): 50 to 100 mg/mL
- solubility ([1]; Toluene): 50 to 100 mg/mL
- solubility ([1]; Water): > 100 mg/mL
- form transformation (XRPD) ([2]; all tested conditions (40° C./75% RH with protection from moisture, 60° C., ambient) except high humidity): no form transformation
- form transformation (XRPD) ([2]; high humidity condition for 1 week): could be transferred into Form A
- crystalline conversion (X-ray diffractograms, FIG. 12) [3]: no crystalline conversion was observed
- Final pH ([4]; water, 25° C., time point 1 hour): 9.05
- Final pH ([4]; water, 25° C., time point 24 hours): 9.03
- XRPD pattern (wet) ([4]; residue of the suspension in water, 25° C., time point 24 hours): Mostly D
- Solubility at 25° C. ([4]; water, time point 1 hour): 239.1 mg/mL
- solubility at 1 h ([4]; water, time point 1 hour): > 200 mg/mL
- Solubility at 25° C. ([4]; water, time point 24 hours): 180.1 mg/mL
- solubility at 24 h ([4]; water, time point 24 hours): ~180 mg/mL
